Data reported in patent US20110183889A1, “SALICYLANILIDE MODIFIED PEPTIDES FOR USE AS ORAL THERAPEUTICS” (The Regents of the University of California, priority 2007, published 2011).

What was measured:
[1] = test system: LDL-induced monocyte chemotactic activity in cultures of human aortic endothelial cells; assay: HDL-inflammatory index: HDL from treated apoE null mice tested in human aortic endothelial cell cultures; format: in vivo; details: for HDL-inflammatory index, salicylanilide with D-4F or L-4F: FIG. 24, salicylanilide:peptide 10:1, peptide 5 μg by stomach tube
Protocol: 11-month-old female apoE null mice were fasted during the day. At night the mice were provided chow containing or not containing additions. […] The mice were only given one gram of chow per mouse (n=8 mice per group) so that they would consume all of the chow. In the morning after the chow was consumed the mice were bled and their plasma was sucrose cryopreserved and fractionated by FPLC and the HDL-containing fractions were tested for their ability to inhibit monocyte chemotactic activity induced by a standard control human LDL (A) in cultures of human aortic endothelial cells. The mouse HDL (C-J) was also compared to a standard human HDL (B) that was added at the same concentrations as the mouse HDL. The resulting monocyte chemotactic activity was normalized to the standard control LDL added alone (A). The results are plotted as the HDL-inflammatory index, which is the result of dividing the monocyte chemotactic activity measured for each condition by the monocyte chemotactic activity obtained by the standard control LDL added alone, which was normalized to 1.0 as described previously (Navab et al. (2004) J Lipid Res, 45: 993-1007).
A second experiment was performed as described for the first experiment with 8 mice in each group except that the additions to the chow were different. […] As in the first experiment the mice were only given one gram of chow per mouse so that they would consume all of the chow. In the morning this second group of mice were bled and their HDL tested in the human artery wall cell culture together with the HDL from the first experiment.
L-4F (free base) was diluted with water to give 10 μg per 100 μL of water. […] The mice were fasted and after 7 hours they were bled and their plasma was sucrose cryopreserved. The plasma was fractionated by FPLC and the HDL-containing fractions were tested for their ability to inhibit the induction of monocyte chemotactic activity by a standard control human LDL, which was added to cultures of human aortic endothelial cells. The standard control human LDL was also added by itself or with a standard control human HDL. The values obtained by the standard control human LDL alone were normalized to 1.0. The values obtained after the addition of the standard control HDL or the mouse HDL were compared to the values obtained by the standard control LDL alone to give the HDL Inflammatory Index.
Fasting was continued and the mice were bled 5 hours later and the HDL inflammatory index determined in cultures of human aortic endothelial cells as described in FIG. 8. Briefly, To determine the HDL-inflammatory index lipoproteins were added to human aortic endothelial cell cultures as described previously (Navab et al., (2005) Circulation Research 97: 524-532). A normal control human LDL was added to each well in triplicate at a final concentration of 100 μg/mL of LDL-cholesterol. A normal human HDL was added to three wells containing human LDL at a final concentration of 50 μg/mL HDL-cholesterol as a positive control. HDL from the mice at a final concentration of 50 μg/mL HDL-cholesterol was added in triplicate to other wells containing human LDL. After 8 hours of culture the supernatants were removed and monocyte chemotactic activity was determined as previously described (Navab et al. (2001) J. Lipid Res., 42: 1308-1317; Danciger et al. (2004) J. Immunol. Meth., 288: 123-124). The values obtained from wells containing the human LDL but no HDL were normalized to 1.0. The values obtained from wells containing the human LDL with either human or mouse HDL were divided by the values obtained from wells with human LDL without added HDL to give the HDL-inflammatory index as previously described (Ansell et al. (2003) Circulation 108: 2751-2756).

[2] = test system: monocyte chemotactic activity in cultures of human aortic endothelial cells; assay: LDL-inflammatory index: LDL from treated apoE null mice tested in human aortic endothelial cell cultures; format: in vivo; details: for LDL-inflammatory index, salicylanilide with D-4F or L-4F: FIG. 25, mice of FIG. 24
Description: […] to induce monocyte chemotactic activity in cultures of human aortic endothelial cells and compared to a standard control human LDL whose values were normalized to 1.0 for the LDL-inflammatory index.

[3] = solubilization of niclosamide in water by L-4F; format: physicochemical; details: FIG. 13; Niclosamide 10 mg per mL in water or water with 1.0 mg/mL L-4F, homogenized, 4° C. ten days
Protocol: The solutions were stored at 4° C. for ten days and photographed (see FIG. 13).

aortic sinus lesion area = assay: lesion regression in old apoE null mice, six months in chow; format: in vivo; details: FIGS. 32-34; L-4F 200 μg and niclosamide 2 mg/mouse/day in chow, pravastatin 50 μg/mouse/day, 26 weeks
Description: Ninety-five female apoE null mice age 9.5 months from the UCLA breeding colony were identified. Twenty-three were sacrificed at time Zero (Group I) to establish lesion area at the start of the experiment. […] All groups received 50 micrograms/mouse/day of pravastatin in their drinking water. At the veterinarian's request because of fighting and/or ulcerative dermatitis mice were euthanized prior to the end of the experiment as follows: 6 mice from Group II; 5 mice from Group III; 4 mice from Group IV. After six months the remaining mice were sacrificed and aortic sinus lesion area was determined as described previously (Id.).
In still another experiments, nine and half months-old female apoE null mice were divided into four groups: Group I was sacrificed to establish base line lesion area (Time Zero). […] Group III received L-4F at 200 μg/mouse/day in rodent chow. […] Groups II-IV received pravastatin 50 μg/mouse/day in drinking water. After 26 weeks the mice were sacrificed and aortic sinus lesion area was determined.

[4] = cited from earlier work
HDL function = details: drinking water of apoE null mice for 24 hours; D-4F 1 μg/ml, statin 0.05 mg/ml; related application U.S. Ser. No. 10/423,830; cited from earlier work
[5] = mouse, in vivo, po
[6] = test system: atherosclerosis in apoE Null mice; assay: atherosclerosis lesions (aortic sinus, en face, macrophage area), 14 weeks in chow; format: in vivo; details: FIGS. 29-31, L-4F 25 and niclosamide 250 μg/mouse/day in chow, all groups pravastatin 50 μg/mouse/day
[7] = self-association of L-4F in aqueous environment (non-denaturing gel); format: physicochemical; details: FIG. 39 lane 2
Description: Lane 1 contains molecular weight markers (HMW).

[8] = test system: LDL-induced monocyte chemotactic activity in cultures of human aortic endothelial cells; details: administered orally to mice; Navab et al. 2002; cited from earlier work
[9] = mouse, in vivo; cited from earlier work
[10] = biological target: the molecule itself; assay: non-denaturing gel (4-20%, coomassie blue), L-4F alone in lane 2; self-association of the peptide
[11] = FIG. 22, peptide 10 μg with or without niclosamide 10:1, ABCT pH 8.0, stomach tube, seven hours

O=C(Nc1ccc([N+](=O)[O-])cc1Cl)c1ccc(Cl)cc1O [BP-1001]
HDL-inflammatory index, salicylanilide with D-4F or L-4F ([1]; six hours): more potent than niclosamide | LDL-inflammatory index, salicylanilide with D-4F or L-4F [2]: more potent

O=C(Nc1ccc([N+](=O)[O-])cc1Cl)c1ccc(O)c(Cl)c1 [BP-1012]
HDL-inflammatory index, salicylanilide with D-4F or L-4F ([1]; six hours): more potent than niclosamide | LDL-inflammatory index, salicylanilide with D-4F or L-4F [2]: more potent

O=C(Nc1ccc([N+](=O)[O-])cc1Cl)c1cc(Cl)ccc1O [Niclosamide, 5-chloro-N-(2-chloro-4-nitrophenyl)-2-hydroxybenzamide]
enhancement of the ability of L-4F to render HDL anti-inflammatory ([1]; FIG. 16, niclosamide 250 μg/day in chow, L-4F 25 μg/day in drinking water or chow, three days): greatly enhanced | enhancement of the ability of L-4F to decrease LDL-induced monocyte chemotactic activity ([2]; FIG. 17, niclosamide 250 μg/day in chow, L-4F 25 μg/day in drinking water or chow, three days): greatly enhanced | solubility of niclosamide in aqueous solution [3]: relatively insoluble | lesions in old apoE null mice versus Time Zero (aortic sinus lesion area): neither niclosamide nor L-4F without niclosamide significantly reduced lesions | water solubility ([4]; at 20° C., ethanolamine salt in distilled water): 5 to 8 mg/L | solubility in acetone [4]: soluble | solubility in ether, ethanol and chloroform [4]: sparingly soluble | stability in tablets ([4]; moist environments): undergoes a biodegradation

CC(C)c1c(C(=O)Nc2ccccc2)c(-c2ccccc2)c(-c2ccc(F)cc2)n1CC[C@@H](O)C[C@@H](O)CC(=O)O [atorvastatin, reference compound]
HDL function (HDL function): did not improve HDL function

Ac-DWFKAFYDKVAEKFKEAF-NH2 [D-4F]
HDL-inflammatory index [1, 11]: able to render apoE null mouse HDL anti-inflammatory to a degree comparable to normal human HDL | detectability in the circulation [5]: essentially non-detectable | HDL function (HDL function): did not significantly improve HDL function

Ac-DWFKAFYDKVAEKFKEAF-NH2 [L-4F, Ac-D-W-F-K-A-F-Y-D-K-V-A-E-K-F-K-E-A-F-NH2]
HDL-inflammatory index ([1]; FIG. 8, female apoE null mice, additions to 1 g chow overnight: L-4F 2 or 10 μg, Niclosamide 8 or 100 μg): slightly but significantly improved | HDL-inflammatory index [1, 11]: only able to achieve this degree of efficacy when co-administered with niclosamide | HDL-inflammatory index ([1]; FIG. 37, fractions containing 10 μg L-4F or 10 μg niclosamide in ABCT by stomach tube, six hours): not effective | atherosclerosis (aortic sinus lesion, en face, macrophage lesion area) [6]: not without niclosamide | lesions in old apoE null mice versus Time Zero (aortic sinus lesion area): neither niclosamide nor L-4F without niclosamide significantly reduced lesions | molecular weight of micelles formed by self-association [7]: > 100 kDa | protective capacity of HDL to inhibit LDL-induced monocyte chemotactic activity [8]: did not significantly alter | detectability in the circulation [5]: essentially non-detectable | degradation after oral administration [9]: rapidly degraded

B1: L-4F (Ac-D-W-F-K-A-F-Y-D-K-V-A-E-K-F-K-E-A-F-NH2, all L amino acids) (peptide)
peptide: Ac-DWFKAFYDKVAEKFKEAF-NH2
notes: It self-associates into micelles; also called L-4F (free base)
binding result [10]: binds
